pEC50: −log10 of the molar value.
How the values were obtained:
[1] = in water; cited from earlier work
[2] = target: T1, glucagon R (Homo sapiens, UniProt P47871); test: DiscoveRx LeadHunter cellular assay, cAMP stimulation, glucagon receptor; format: cell-based
T1 construct: host or cells: CHO cells
Procedure: (§1) § means superagonist A further series of cellular assays were carried out using standard cellular assays (DiscoveRx, LeadHunter assays) using readout of cAMP stimulation or arrestin activation. Compounds were weighed precisely in an amount of approximately 1 mg and shipped to DiscoveRx for dilution and assay.

[3] = tested on: db/db mice; test: In vivo assay in db/db mice (blood glucose, body weight, food consumption); conditions: for db/db mice - Mean Blood Glucose, 10 hr: 10 hr after first dose; for db/db mice - Mean Blood Glucose, 24 hr: 24 hr after first dose; for db/db mice - Mean Blood Glucose, 48 hr: 48 hr after first dose
Procedure: The 60 female db/db B6BKS (D) Leprdb/J (strain 000697) mice for this study were approximately 8 to 9 weeks old at arrival (Jackson Laboratory, Bar Harbor, Me.). […] One group of 8 female mice served as the vehicle control and received the vehicle, 0.2% BSA in saline, pH 7.4. One additional group of 8 female mice received the positive control article, liraglutide, at a dose level of 50 nmoles/kg. The test articles, vehicle, and positive control article were administered on Day 1, at approximately 0, 7, and 24 hours during the study via subcutaneous injection at a dose volume of 6 mL/kg.
Clinical observations were conducted at receipt, prior to randomization, and daily from Days 1 to 5. Body weights were measured and recorded at receipt, prior to randomization, and daily from Days 1 to 5. Food consumption was measured and recorded daily from Days 1 to 5. Blood samples for glucose analysis were collected pretest (Day −3) and at 0, 1, 2, 4, 8, 10, 24, 48, 72, and 96 hours following the first dose on Day 1. At study termination all animals were euthanized and the carcasses were discarded without further evaluation.

[4] = target: GLP-1 R (Homo sapiens, UniProt P43220); test: DiscoveRx LeadHunter cellular assay, cAMP stimulation, GLP-1 receptor; format: cell-based
GLP-1 R, sequence (P43220 24-463): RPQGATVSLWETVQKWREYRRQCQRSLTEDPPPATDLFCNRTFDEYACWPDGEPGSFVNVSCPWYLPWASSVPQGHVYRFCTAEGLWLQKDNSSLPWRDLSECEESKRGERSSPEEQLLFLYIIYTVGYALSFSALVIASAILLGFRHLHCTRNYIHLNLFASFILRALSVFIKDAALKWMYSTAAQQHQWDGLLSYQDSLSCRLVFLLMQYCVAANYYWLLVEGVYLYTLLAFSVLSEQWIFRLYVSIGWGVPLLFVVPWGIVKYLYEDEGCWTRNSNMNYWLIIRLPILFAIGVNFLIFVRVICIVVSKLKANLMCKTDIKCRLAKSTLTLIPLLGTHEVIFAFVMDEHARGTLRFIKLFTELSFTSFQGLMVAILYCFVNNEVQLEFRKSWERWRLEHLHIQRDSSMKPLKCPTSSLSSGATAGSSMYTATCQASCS
Procedure: as §1

T1 sequence (P47871 26-477): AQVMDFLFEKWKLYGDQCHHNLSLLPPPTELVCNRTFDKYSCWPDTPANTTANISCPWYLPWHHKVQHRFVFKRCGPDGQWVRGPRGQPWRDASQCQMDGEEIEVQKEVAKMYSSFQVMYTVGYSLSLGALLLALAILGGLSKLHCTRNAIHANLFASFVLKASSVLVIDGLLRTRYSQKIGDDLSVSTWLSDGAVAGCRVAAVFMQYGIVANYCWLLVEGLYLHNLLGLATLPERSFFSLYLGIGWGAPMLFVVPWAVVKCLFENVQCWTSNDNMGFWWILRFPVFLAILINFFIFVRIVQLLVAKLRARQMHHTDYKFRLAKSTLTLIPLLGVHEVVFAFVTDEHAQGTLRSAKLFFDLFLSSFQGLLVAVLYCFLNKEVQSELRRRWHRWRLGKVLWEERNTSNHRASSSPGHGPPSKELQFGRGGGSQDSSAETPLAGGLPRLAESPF

Molecule: CCCCCCCCCCCCCCO[C@@H]1O[C@H](CO)[C@@H](O[C@@H]2O[C@@H](CO)[C@H](O)[C@@H](O)[C@@H]2O)[C@H](O)[C@H]1O (stereo in doubt) [Tetradecyl maltoside]
- CMC (critical micelle concentration) [1]: 0.01 mM

Molecule: CCCCCCCCCCCCCO[C@@H]1O[C@H](CO)[C@@H](OC2OC(CO)C(O)C(O)C2O)[C@H](O)[C@H]1O (stereo in doubt) [Tridecyl maltoside]
- CMC (critical micelle concentration) [1]: 0.03 mM

Molecule: CCCCCCCCCCO[C@@H]1O[C@H](CO)[C@@H](O[C@H]2O[C@H](CO)[C@@H](O)[C@H](O)[C@H]2O)[C@H](O)[C@H]1O [Decyl maltoside]
- CMC (critical micelle concentration) [1]: 1.8 mM

Molecule: CCCCCCCCCCCCO[C@@H]1O[C@H](CO)[C@@H](O[C@H]2O[C@H](CO)[C@@H](O)[C@H](O)[C@H]2O)[C@H](O)[C@H]1O [Dodecyl-β-D-maltoside]
- CMC (critical micelle concentration) [1]: 0.17 mM

Molecule: CCCCCCCCO[C@@H]1O[C@H](C(=O)NCCCC[C@H](NC(=O)[C@@H](NC(=O)[C@H](Cc2ccccc2)NC(=O)[C@H](CCC(=O)O)NC(=O)[C@@H]2CCCCNC(=O)CC[C@H](NC(=O)[C@H](CC(=O)O)NC(=O)[C@H](CC(C)C)NC(=O)[C@H](Cc3ccc(O)cc3)NC(=O)[C@H](CCCCN)NC(=O)[C@H](CO)NC(=O)[C@H](Cc3ccc(O)cc3)NC(=O)[C@H](CC(=O)O)NC(=O)[C@H](CO)NC(=O)[C@@H](NC(=O)[C@H](Cc3ccccc3)NC(=O)[C@@H](NC(=O)CNC(=O)[C@H](CCC(N)=O)NC(=O)C(C)(C)NC(=O)[C@@H](N)Cc3c[nH]cn3)[C@@H](C)O)[C@@H](C)O)C(=O)N[C@@H](CCC(N)=O)C(=O)N[C@@H](C)C(=O)N[C@@H](C)C(=O)N2)[C@@H](C)CC)C(=O)N[C@@H](Cc2c[nH]c3ccccc23)C(=O)N[C@@H](CC(C)C)C(=O)N[C@@H](CC(C)C)C(=O)N[C@@H](CCC(N)=O)C(=O)N[C@H](C(N)=O)[C@@H](C)O)[C@@H](O)[C@H](O)[C@H]1O [EU-A992, His1-Aib2-Gln3-Gly4-Thr5-Phe6-Thr7-Ser8-Asp9-Tyr10-Ser11-Lys12-Tyr13-Leu14-Asp15-Glu*16-Gln17 Ala18-Ala19-Lys*20-Glu21-Phe22-Ile23-Lys(N-omega(1-octylbeta-D-glucuronyl))24-Trp25-Leu26-Leu27-Gln28-Thr29-NH2]
- pEC50 [2]: 10.72
- db/db mice - Mean Blood Glucose, 0 hr ([3]; 250 nmole/kg s.c.): 405 mg/dL
- db/db mice - Mean Blood Glucose, 10 hr ([3]; 250 nmole/kg s.c.): 104 mg/dL
- db/db mice - Mean Blood Glucose, 24 hr ([3]; 250 nmole/kg s.c.): 112 mg/dL
- db/db mice - Mean Blood Glucose, 48 hr ([3]; 250 nmole/kg s.c.): 130 mg/dL

Molecule: CCCCCCCCCCCCO[C@@H]1O[C@H](CO[C@H]2O[C@H](C(=O)NCCCC[C@H](NC(=O)[C@@H](NC(=O)[C@H](Cc3ccccc3)NC(=O)[C@H](CCC(=O)O)NC(=O)[C@@H]3CCCCNC(=O)CC[C@H](NC(=O)[C@H](CC(=O)O)NC(=O)[C@H](CC(C)C)NC(=O)[C@H](Cc4ccc(O)cc4)NC(=O)[C@H](CCCCN)NC(=O)[C@H](CO)NC(=O)[C@H](Cc4ccc(O)cc4)NC(=O)[C@H](CC(=O)O)NC(=O)[C@H](CO)NC(=O)[C@@H](NC(=O)[C@H](Cc4ccccc4)NC(=O)[C@@H](NC(=O)CNC(=O)[C@H](CCC(N)=O)NC(=O)C(C)(C)NC(=O)[C@@H](N)Cc4c[nH]cn4)[C@@H](C)O)[C@@H](C)O)C(=O)N[C@@H](CCC(N)=O)C(=O)N[C@@H](C)C(=O)N[C@@H](C)C(=O)N3)[C@@H](C)CC)C(=O)N[C@@H](Cc3c[nH]c4ccccc34)C(=O)N[C@@H](CC(C)C)C(=O)N[C@@H](CC(C)C)C(=O)N[C@@H](CCC(N)=O)C(=O)N[C@H](C(N)=O)[C@@H](C)O)[C@H](O)[C@H](O)[C@H]2O)[C@@H](O)[C@H](O)[C@H]1O [EU-A1023, His1-Aib2-Gln3-Gly4-Thr5-Phe6-Thr7-Ser8-Asp9-Tyr10-Ser11-Lys12-Tyr13-Leu14-Asp15-Glu*16-Gln17 Ala18-Ala19-Lys*20-Glu21-Phe22-Ile23-Lys(N-omega(1-dodecylbeta-D-melibiouronyl))24-Trp25-Leu26-Leu27-Gln28-Thr29-NH2]
- db/db mice - Mean Blood Glucose, 0 hr ([3]; 50 nmole/kg s.c.): 507 mg/dL
- db/db mice - Mean Blood Glucose, 10 hr ([3]; 50 nmole/kg s.c.): 310 mg/dL
- db/db mice - Mean Blood Glucose, 24 hr ([3]; 50 nmole/kg s.c.): 355 mg/dL
- db/db mice - Mean Blood Glucose, 48 hr ([3]; 50 nmole/kg s.c.): 375 mg/dL
- db/db mice - Mean Blood Glucose, 0 hr ([3]; 250 nmole/kg s.c.): 508 mg/dL
- db/db mice - Mean Blood Glucose, 10 hr ([3]; 250 nmole/kg s.c.): 264 mg/dL
- db/db mice - Mean Blood Glucose, 24 hr ([3]; 250 nmole/kg s.c.): 194 mg/dL
- db/db mice - Mean Blood Glucose, 48 hr ([3]; 250 nmole/kg s.c.): 375 mg/dL

Molecule: CCCCCCCCCCO[C@@H]1O[C@H](C(=O)NCCCC[C@H](NC(=O)[C@@H](NC(=O)[C@H](Cc2ccccc2)NC(=O)[C@H](CCC(=O)O)NC(=O)[C@@H]2CCCCNC(=O)CC[C@H](NC(=O)[C@H](CC(=O)O)NC(=O)[C@H](CC(C)C)NC(=O)[C@H](Cc3ccc(O)cc3)NC(=O)[C@H](CCCCN)NC(=O)[C@H](CO)NC(=O)[C@H](Cc3ccc(O)cc3)NC(=O)[C@H](CC(=O)O)NC(=O)[C@H](CO)NC(=O)[C@@H](NC(=O)[C@H](Cc3ccccc3)NC(=O)[C@@H](NC(=O)CNC(=O)[C@H](CCC(N)=O)NC(=O)C(C)(C)NC(=O)[C@@H](N)Cc3c[nH]cn3)[C@@H](C)O)[C@@H](C)O)C(=O)N[C@@H](CCC(N)=O)C(=O)N[C@@H](C)C(=O)N[C@@H](C)C(=O)N2)[C@@H](C)CC)C(=O)N[C@@H](Cc2c[nH]c3ccccc23)C(=O)N[C@@H](CC(C)C)C(=O)N[C@@H](CC(C)C)C(=O)N[C@@H](CCC(N)=O)C(=O)N[C@H](C(N)=O)[C@@H](C)O)[C@@H](O)[C@H](O)[C@H]1O [EU-A1167, His1-Aib2-Gln3-Gly4-Thr5-Phe6-Thr7-Ser8-Asp9-Tyr10-Ser11-Lys12-Tyr13-Leu14-Asp15-Glu*16-Gln17 Ala18-Ala19-Lys*20-Glu21-Phe22-Ile23-Lys(N-omega(1-decylbeta-D-glucuronyl))24-Trp25-Leu26-Leu27-Gln28-Thr29-NH2]
- pEC50 [4]: 10.89
- pEC50 [2]: 10.72
- db/db mice - Mean Blood Glucose, 0 hr ([3]; 250 nmole/kg s.c.): 379 mg/dL
- db/db mice - Mean Blood Glucose, 10 hr ([3]; 250 nmole/kg s.c.): 171 mg/dL
- db/db mice - Mean Blood Glucose, 24 hr ([3]; 250 nmole/kg s.c.): 117 mg/dL
- db/db mice - Mean Blood Glucose, 48 hr ([3]; 250 nmole/kg s.c.): 113 mg/dL

Molecule: CCCCCCCCCCCO[C@@H]1O[C@H](C(=O)NCCCC[C@H](NC(=O)[C@@H](NC(=O)[C@H](Cc2ccccc2)NC(=O)[C@H](CCC(=O)O)NC(=O)[C@@H]2CCCCNC(=O)CC[C@H](NC(=O)[C@H](CC(=O)O)NC(=O)[C@H](CC(C)C)NC(=O)[C@H](Cc3ccc(O)cc3)NC(=O)[C@H](CCCCN)NC(=O)[C@H](CO)NC(=O)[C@H](Cc3ccc(O)cc3)NC(=O)[C@H](CC(=O)O)NC(=O)[C@H](CO)NC(=O)[C@@H](NC(=O)[C@H](Cc3ccccc3)NC(=O)[C@@H](NC(=O)CNC(=O)[C@H](CCC(N)=O)NC(=O)C(C)(C)NC(=O)[C@@H](N)Cc3c[nH]cn3)[C@@H](C)O)[C@@H](C)O)C(=O)N[C@@H](CCC(N)=O)C(=O)N[C@@H](C)C(=O)N[C@@H](C)C(=O)N2)[C@@H](C)CC)C(=O)N[C@@H](Cc2c[nH]c3ccccc23)C(=O)N[C@@H](CC(C)C)C(=O)N[C@@H](CC(C)C)C(=O)N[C@@H](CCC(N)=O)C(=O)N[C@H](C(N)=O)[C@@H](C)O)[C@@H](O)[C@H](O)[C@H]1O [EU-A1168, His1-Aib2-Gln3-Gly4-Thr5-Phe6-Thr7-Ser8-Asp9-Tyr10-Ser11-Lys12-Tyr13-Leu14-Asp15-Glu*16-Gln17 Ala18-Ala19-Lys*20-Glu21-Phe22-Ile23-Lys(N-omega(1-undecylbeta-D-glucuronyl))24-Trp25-Leu26-Leu27-Gln28-Thr29-NH2]
- pEC50 [4]: 10.15
- pEC50 [2]: 9.85
- db/db mice - Mean Blood Glucose, 0 hr ([3]; 250 nmole/kg s.c.): 380 mg/dL
- db/db mice - Mean Blood Glucose, 10 hr ([3]; 250 nmole/kg s.c.): 133 mg/dL
- db/db mice - Mean Blood Glucose, 24 hr ([3]; 250 nmole/kg s.c.): 169 mg/dL
- db/db mice - Mean Blood Glucose, 48 hr ([3]; 250 nmole/kg s.c.): 164 mg/dL

Molecule: CCCCCCCCO[C@@H]1O[C@H](CO)[C@@H](O[C@H]2O[C@H](CO)[C@@H](O)[C@H](O)[C@H]2O)[C@H](O)[C@H]1O [Octyl maltoside]
- CMC (critical micelle concentration) [1]: 19.5 mM

Molecule: Sucrose dodecanoate
- CMC (critical micelle concentration) [1]: 0.3 mM
